Read-outs that look alike come from different tables or passages of the source.
Biological target: T1, KDM4C (Homo sapiens, UniProt Q9H3R0)
T1 construct: N-terminal GST-tagged KDM4C^2-372 was purchased from BPS Biosciences; GST (N); purchased BPS Biosciences
T1 sequence (Q9H3R0 2-372): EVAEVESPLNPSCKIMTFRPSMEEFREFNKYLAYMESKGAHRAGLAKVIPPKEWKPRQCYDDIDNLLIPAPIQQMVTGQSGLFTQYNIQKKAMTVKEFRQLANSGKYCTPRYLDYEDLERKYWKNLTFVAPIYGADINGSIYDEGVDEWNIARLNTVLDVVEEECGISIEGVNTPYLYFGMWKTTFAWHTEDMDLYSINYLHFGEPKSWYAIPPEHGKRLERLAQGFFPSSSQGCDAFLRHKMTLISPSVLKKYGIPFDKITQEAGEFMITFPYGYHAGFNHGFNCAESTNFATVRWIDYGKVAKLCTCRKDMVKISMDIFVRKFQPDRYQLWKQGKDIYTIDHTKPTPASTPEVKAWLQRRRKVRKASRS
Experiment: KDM4C Assay (SAMDI mass spectrometry demethylase assay)
Format: biochemical
Details: N-terminal GST-tagged KDM4C 2-372, read-out: 4C IC50
Summary of the method: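 GST-tagged KDM4C 2-372 (5 nM) preincubated 30 min with compound, then H3K9me3 biotinylated peptide (500 nM) and 2-oxoglutarate (15 μM) added in HEPES pH 8.0 with ascorbate, Fe(II), TCEP; 150 min at 25 °C, formic-acid quench. Conversion by SAMDI mass spectrometry from substrate/product peak AUC; IC50 from dose-response.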

SMILES | IC50 (class symbols) [nM] | IC50 (numeric bound) [nM]
Cn1nc(Nc2cnccc2C(=O)O)cc1-c1ccccc1 [Compound 5] | 100 to 1000 | –
COC(=O)c1ccncc1Nc1cnn(C2CCN(C3CCC3)CC2)c1C [Compound 95, methyl 3-((1-(1-cyclobutylpiperidin-4-yl)-5-methyl-1H-pyrazol-4-yl)amino)isonicotinate] | 10000 to 100000 | –
CCc1c(Nc2cnccc2C(=O)O)cnn1-c1ccccc1 [Compound 81, 3-((5-ethyl-1-phenyl-1H-pyrazol-4-yl)amino)isonicotinic acid] | 1 to 100 | –
O=C(O)c1ccncc1Nc1cc(-c2cccc(Cl)c2)n(C2CCC3(CC2)OCCO3)n1 [Compound 86, 3-((5-(3-chlorophenyl)-1-(1,4-dioxaspiro[4.5]decan-8-yl)-1H-pyrazol-3-yl)amino)isonicotinic acid] | 1000 to 10000 | –
Cc1nn([C@H]2CC[C@@H](N)CC2)cc1Nc1cnccc1C(=O)O [Compound 80, 3-((1-((cis)-4-aminocyclohexyl)-3-methyl-1H-pyrazol-4-yl)amino)isonicotinic acid] | 100 to 1000 | –
Cc1nn(C2CCN(CC3CC3)CC2)cc1Nc1cnccc1C(=O)O [Compound 89, 3-(1-(1-(cyclopropylmethyl)piperidin-4-yl)-3-methyl-1H-pyrazol-4-ylamino)isonicotinic acid] | 100 to 1000 | –
Cc1ccc(-n2cc(Nc3cnccc3C(=O)O)c(C)n2)cc1 [Compound 82] | 1 to 100 | –
O=C(O)c1ccncc1Nc1nn(-c2ccccc2)cc1-c1ccncc1 [Compound 88, 3-((1-phenyl-4-(pyridin-4-yl)-1H-pyrazol-3-yl)amino) isonicotinic acid] | 1 to 100 | –
Cc1c(Nc2cnccc2C(=O)O)cnn1C1CCN(CC2CC2)CC1 [Compound 90, 3-(1-(1-(cyclopropylmethyl)piperidin-4-yl)-5-methyl-1H-pyrazol-4-ylamino) isonicotinic acid] | 100 to 1000 | –
Cc1nn(C2CCN(C3CCC3)CC2)cc1Nc1cnccc1C(=O)O [Compound 94, 3-(1-(1-cyclobutylpiperidin-4-yl)-3-methyl-1H-pyrazol-4-ylamino)isonicotinic acid] | 100 to 1000 | –
NC1CCC(n2nc(-c3cccc(Cl)c3)cc2Nc2cnccc2C(=O)O)CC1 (centres unmarked) [Compound 85, 3-((1-(4-aminocyclohexyl)-3-(3-chlorophenyl)-1H-pyrazol-5-yl)amino)isonicotinic acid] | 1000 to 10000 | –

Second part, the compound after the results:

IC50 (class symbols) [nM] | IC50 (numeric bound) [nM] | SMILES
10000 to 100000 | – | NC1CCC(n2nc(Nc3cnccc3C(=O)O)cc2-c2cccc(Cl)c2)CC1 (centres unmarked) [Compound 87, 3-((1-(4-aminocyclohexyl)-5-(3-chlorophenyl)-1H-pyrazol-3-yl)amino)isonicotinic acid]
100 to 1000 | – | Cc1c(Nc2cnccc2C(=O)O)cnn1C1CCN(C2CN(C)C2)CC1 [Compound 92, 3-(5-methyl-1-(1-(1-methylazetidin-3-yl)piperidin-4-yl)-1H-pyrazol-4-ylamino)isonicotinic acid]
1000 to 10000 | – | CN1CCC(n2ncc(Nc3cnccc3C(=O)O)c2-c2ccccc2)CC1 [Compound 126, 3-(1-(1-methylpiperidin-4-yl)-5-phenyl-1H-pyrazol-4-ylamino) isonicotinic acid]
1000 to 10000 | – | Cc1nn(C2CCN(C3CN(C)C3)CC2)cc1Nc1cnccc1C(=O)O [Compound 91, 3-(3-methyl-1-(1-(1-methylazetidin-3-yl)piperidin-4-yl)-1H-pyrazol-4-ylamino)isonicotinic acid]
– | > 100000 | COC(=O)c1ccncc1Nc1cn(C2CCN(C3CCC3)CC2)nc1C [Compound 93, methyl 3-((1-(1-cyclobutylpiperidin-4-yl)-3-methyl-1H-pyrazol-4-yl)amino)isonicotinate]
1000 to 10000 | – | Cn1ncc(-c2cccnc2)c1Nc1cnccc1C(=O)O [Compound 4]
